Assay results published in ChEMBL document CHEMBL5036301, “Heteroaryl ether analogues of an antileishmanial 7-substituted 2-nitroimidazooxazine lead afford attenuated hERG risk: In vitro and in vivo appraisal” (Eur J Med Chem, 2021).
≈ marks a conversion by molar mass, not a printed value.

Tests used:
Leishmania infantum [1] = assay: Antileishmanial activity against Leishmania infantum amastigotes infected in golden hamster assessed as reduction in parasite load in spleen tissue at 25 mg/kg, po administered once daily for 5 days relative to control; details: in Mesocricetus auratus, 120 h, read-out: INH
Leishmania donovani [2] = assay: Antileishmanial activity against Leishmania donovani amastigotes infected in BALB/C mouse assessed as reduction in parasite burden in liver tissue at 3.13 mg/kg, po administered once per day for 5 days relative to control; format: functional; details: 120 h, time 5 day
Leishmania donovani [3] = assay: Antileishmanial activity against Leishmania donovani amastigotes infected in BALB/C mouse assessed as reduction in parasite burden in liver tissue at 25 mg/kg, po administered once per day for 5 days relative to control; details: 120 h, read-out: INH
Leishmania infantum [4] = assay: animal or person; details: in Mesocricetus auratus, po, 120 h, read-out: INH
Description: Antileishmanial activity against Leishmania infantum amastigotes infected in golden hamster assessed as reduction in parasite load in bone marrow tissue at 12.5 mg/kg, po administered once daily for 5 days relative to control

Leishmania donovani [5] = assay: Antileishmanial activity against Leishmania donovani amastigotes infected in BALB/C mouse assessed as reduction in parasite burden in liver tissue at 6.25 mg/kg, po administered once per day for 5 days relative to control; format: functional; details: 120 h, time 5 day
Leishmania infantum [6] = assay: Antileishmanial activity against Leishmania infantum amastigotes infected in golden hamster assessed as reduction in parasite load in liver tissue at 50 mg/kg, po administered once daily for 5 days relative to control; format: functional; details: 120 h, time 5 day
Leishmania infantum [7] = assay: Antileishmanial activity against Leishmania infantum amastigotes infected in golden hamster assessed as reduction in parasite load in spleen tissue at 50 mg/kg, po administered once daily for 5 days relative to control; format: functional; details: 120 h, time 5 day
Leishmania infantum [8] = assay: animal or person; details: in Mesocricetus auratus, po, 120 h, read-out: INH; remark: listed apart in the source
Description: Antileishmanial activity against Leishmania infantum amastigotes infected in golden hamster assessed as reduction in parasite load in spleen tissue at 12.5 mg/kg, po administered once daily for 5 days relative to control

Leishmania infantum [9] = assay: Antileishmanial activity against Leishmania infantum amastigotes infected in golden hamster assessed as reduction in parasite load in liver tissue at 25 mg/kg, po administered once daily for 5 days relative to control; details: in Mesocricetus auratus, 120 h, read-out: INH
Leishmania donovani [10] = assay: Antileishmanial activity against Leishmania donovani amastigotes infected in mouse J774A.1 cells incubated for 72 hrs by luciferase assay; format: functional, organism-based; details: J774.A1, 72 h
Leishmania infantum [11] = assay: animal or person; details: in Mesocricetus auratus, po, 120 h, read-out: INH; remark: listed apart in the source
Description: Antileishmanial activity against Leishmania infantum amastigotes infected in golden hamster assessed as reduction in parasite load in liver tissue at 12.5 mg/kg, po administered once daily for 5 days relative to control

Leishmania infantum [12] = assay: Antileishmanial activity against Leishmania infantum amastigotes infected in golden hamster assessed as reduction in parasite load in bone marrow tissue at 50 mg/kg, po administered once daily for 5 days relative to control; format: functional; details: 120 h, time 5 day
[13] = Half life in hamster at 41 to 51 mg/kg, po measured upto 24 hrs LC-MS/MS analysis; details: chinese hamster, in vivo
in vivo [14] = details: chinese hamster, po
[15] = AUClast in hamster at 41 to 51 mg/kg, po measured upto 24 hrs LC-MS/MS analysis; details: chinese hamster, in vivo
[16] = Half life in mouse at 25 mg/kg, po measured upto 24 hrs LC-MS/MS analysis; details: in vivo
[17] = test system: Mycobacterium tuberculosis; assay: Antitubercular activity against Mycobacterium tuberculosis H37Rv assessed as reduction in microbial growth under aerobic condition by luminescence analysis; format: functional
Leishmania infantum [18] = assay: Antileishmanial activity against Leishmania infantum MHOM/MA(BE)/67 amastigotes infected in macrophages assessed as reduction in parasite burden by giemsa staining based microscopic analysis; format: functional, organism-based
Leishmania donovani [19] = assay: Antileishmanial activity against Leishmania donovani amastigotes infected in BALB/C mouse assessed as reduction in parasite burden in liver tissue at 50 mg/kg, po administered once per day for 5 days relative to control; format: functional; details: 120 h, time 5 day
[20] = test system: Mycobacterium tuberculosis; assay: Antitubercular activity against Mycobacterium tuberculosis H37Rv assessed as reduction in microbial growth under anaerobic condition by luminescence analysis; format: functional
[21] = AUClast in mouse at 25 mg/kg, po measured upto 24 hrs LC-MS/MS analysis; details: in vivo
Trypanosoma cruzi = assay: Antitrypanosomal activity against Trypanosoma cruzi Tulahuen CL2 infected in human MRC-5 cells assessed as parasite growth; format: functional, organism-based; details: Tulahuen CL2, MRC5
[22] = Kinetic solubility of compound in water at pH7 by HPLC analysis; details: pH 7
in vivo [23] = details: mouse, po, 25 mg/kg
in vivo [24] = details: mouse, po, 25 mg/kg; remark: listed apart in the source
MRC5 = assay: Cytotoxicity against human MRC5 cells assessed as cell viability after 72 hrs by fluorimetric analysis; format: ADME, cell-based; details: MRC5, 72 h
in vivo [25] = details: chinese hamster, po; remark: listed apart in the source
[26] = Clearance in mouse at 1 mg/kg, iv measured upto 24 hrs LC-MS/MS analysis; details: in vivo
[27] = Kinetic solubility of compound in 0.1 M Hcl at pH1 by HPLC analysis; format: physicochemical; details: pH 1, read-out: Kinetic_solubility
hERG (KCNH2) = hERG (KCNH2) (Homo sapiens, UniProt Q12809); assay: Inhibition of human ERG expressed in HEK293 cells at 10 uM relative to control; format: cell-based; details: HEK293 cells expressing human ERG
[28] = Half life in mouse at 1 mg/kg, iv measured upto 24 hrs LC-MS/MS analysis; details: in vivo
[29] = mouse, in vivo, po, 25 mg/kg, 24 h
[30] = Volume of distribution at steady state in mouse at 1 mg/kg, iv measured upto 24 hrs LC-MS/MS analysis; details: in vivo
[31] = AUClast in mouse at 1 mg/kg, iv measured upto 24 hrs LC-MS/MS analysis; details: in vivo, 24 h
[32] = Initial plasma concentration in mouse at 1 mg/kg, iv measured upto 24 hrs LC-MS/MS analysis
Leishmania infantum [33] = assay: Antileishmanial activity against Leishmania infantum amastigotes infected in golden hamster assessed as reduction in parasite load in spleen tissue at 40 mg/kg, po administered once daily for 5 days relative to control; format: functional; details: 120 h, time 5 day
Leishmania infantum [34] = assay: Antileishmanial activity against Leishmania infantum amastigotes infected in golden hamster assessed as reduction in parasite load in bone marrow tissue at 40 mg/kg, po administered once daily for 5 days relative to control; format: functional; details: 120 h, time 5 day
Leishmania infantum [35] = assay: Antileishmanial activity against Leishmania infantum amastigotes infected in golden hamster assessed as reduction in parasite load in liver tissue at 40 mg/kg, po administered once daily for 5 days relative to control; format: functional; details: 120 h, time 5 day

hERG (KCNH2), sequence (Q12809 whole entry): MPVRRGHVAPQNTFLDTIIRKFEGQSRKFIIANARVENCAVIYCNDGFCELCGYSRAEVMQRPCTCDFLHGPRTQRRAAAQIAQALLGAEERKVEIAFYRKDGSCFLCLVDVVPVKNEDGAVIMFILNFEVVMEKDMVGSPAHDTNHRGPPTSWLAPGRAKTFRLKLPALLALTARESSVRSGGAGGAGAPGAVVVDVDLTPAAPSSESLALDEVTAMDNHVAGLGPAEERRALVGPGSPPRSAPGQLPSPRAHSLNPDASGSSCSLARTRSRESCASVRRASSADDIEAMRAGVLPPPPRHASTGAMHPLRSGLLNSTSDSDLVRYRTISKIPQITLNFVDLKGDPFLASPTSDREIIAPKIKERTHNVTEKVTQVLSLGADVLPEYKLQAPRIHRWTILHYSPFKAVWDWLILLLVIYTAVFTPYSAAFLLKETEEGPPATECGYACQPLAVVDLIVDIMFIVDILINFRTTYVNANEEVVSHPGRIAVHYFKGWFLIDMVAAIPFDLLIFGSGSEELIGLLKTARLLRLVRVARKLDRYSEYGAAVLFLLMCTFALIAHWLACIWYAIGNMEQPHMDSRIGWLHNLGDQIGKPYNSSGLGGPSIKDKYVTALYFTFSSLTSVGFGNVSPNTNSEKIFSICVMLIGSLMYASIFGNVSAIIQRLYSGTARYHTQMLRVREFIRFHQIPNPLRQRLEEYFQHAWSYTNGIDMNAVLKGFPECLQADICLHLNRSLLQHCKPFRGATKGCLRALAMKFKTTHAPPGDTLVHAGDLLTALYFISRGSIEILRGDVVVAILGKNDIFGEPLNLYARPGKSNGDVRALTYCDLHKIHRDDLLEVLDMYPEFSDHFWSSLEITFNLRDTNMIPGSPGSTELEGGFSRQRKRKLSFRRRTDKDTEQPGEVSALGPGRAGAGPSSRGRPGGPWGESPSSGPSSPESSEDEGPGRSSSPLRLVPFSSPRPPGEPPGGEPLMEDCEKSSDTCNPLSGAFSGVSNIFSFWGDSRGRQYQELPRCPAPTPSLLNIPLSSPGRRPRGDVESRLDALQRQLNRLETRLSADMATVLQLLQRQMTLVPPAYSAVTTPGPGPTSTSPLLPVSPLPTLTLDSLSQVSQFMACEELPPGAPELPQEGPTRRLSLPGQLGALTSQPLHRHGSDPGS

| SMILES | inhibition in vivo at 50 mg/kg (Leishmania infantum [6]) [%] | inhibition in vivo at 50 mg/kg (Leishmania infantum [7]) [%] | IC50 (Leishmania donovani [10]) [nM] | inhibition in vivo at 50 mg/kg (Leishmania infantum [12]) [%] | Cmax at 24 h (in vivo [14]) [ng/mL] | AUC(0-t) at 24 h [15] [ng·h/mL] | half-life at 24 h [16] [h] | MIC [17] [µM] | IC50 (Leishmania infantum [18]) [nM] | inhibition in vivo at 50 mg/kg (Leishmania donovani [19]) [%] | MIC [20] [µM] | AUC(0-t) at 24 h [21] [ng·h/mL] | IC50 (Trypanosoma cruzi) [nM] | solubility kinetic [22] [µg/mL] | Tmax at 24 h (in vivo [23]) [h] | Cmax at 24 h (in vivo [24]) [ng/mL] | IC50 (MRC5) [nM] | Tmax at 24 h (in vivo [25]) [h] | other results |
| --- | --- | --- | --- | --- | --- | --- | --- | --- | --- | --- | --- | --- | --- | --- | --- | --- | --- | --- | --- |
| C[C@@]1(COc2ccc(OC(F)(F)F)cc2)CCn2cc([N+](=O)[O-])nc2O1 | 100 | 99.9 | 370 | 99.7 | – | – | – | – | – | – | – | – | – | – | – | – | – | – | inhibition in vivo at 25 mg/kg (Leishmania infantum [1]): 92.3%; inhibition in vivo at 3.13 mg/kg (Leishmania donovani [2]): 18%; inhibition in vivo at 25 mg/kg (Leishmania donovani [3]): 66%; inhibition in vivo at 12.5 mg/kg (Leishmania infantum [4]): 0%; inhibition in vivo at 6.25 mg/kg (Leishmania donovani [5]): 49%; inhibition in vivo at 12.5 mg/kg (Leishmania infantum [8]): 44.4%; inhibition in vivo at 25 mg/kg (Leishmania infantum [9]): 97.2%; inhibition in vivo at 12.5 mg/kg (Leishmania infantum [11]): 47.3% |
| C[C@]1(COc2ccc(C(F)(F)F)cn2)CCn2cc([N+](=O)[O-])nc2O1 | 51.8 | 47.1 | – | 54 | 45 | 72 | 1.5 | 0.16 | 290 | 84 | 3.8 | 39600 | 340 | 26 (≈ 72.6 µM) | 3.7 | 9500 | > 64000 | 0.75 | half-life at 24 h [13]: 0.72 h |
| CC1(COc2ccc(C(F)(F)F)cn2)CCn2cc([N+](=O)[O-])nc2O1 (configuration not stated) | – | – | 210 | – | – | – | – | 0.6 | 270 | 96 | 8.9 | – | 290 | 19 (≈ 53 µM) | 0.5 | 15000 | > 64000 | – | clearance at 24 h [26]: 31 mL/min/kg; solubility kinetic [27]: 12 µg/mL (≈ 33.5 µM); AUClast ([21]; 24 h): 57100 ng·h/mL; inhibition at 10 µM (hERG (KCNH2)): 18%; half-life at 24 h [28]: 0.85 h; F [29]: 100%; Vd at 24 h [30]: 1.3 L/kg; AUClast [31]: 544 ng·h/mL; C0 at 24 h [32]: 810 ng/mL |
| C[C@@]1(COc2ccc(C(F)(F)F)cn2)CCn2cc([N+](=O)[O-])nc2O1 | 46.5 | 52.3 | – | 37.4 | 310 | 924 | 1.5 | – | 750 | 38 | – | 183000 | 980 | 21 (≈ 58.6 µM) | 2 | 33000 | > 64000 | 4.3 | – |
| CCCCCCCCCCCCCCCCOP(=O)([O-])OCC[N+](C)(C)C [MILTEFOSINE] | – | – | – | – | – | – | – | – | – | – | – | – | – | – | – | – | – | – | inhibition in vivo at 40 mg/kg (Leishmania infantum [33]): 99.7%; inhibition in vivo at 40 mg/kg (Leishmania infantum [34]): 94.9%; inhibition in vivo at 40 mg/kg (Leishmania infantum [35]): 98.5% |
